We go through six compounds from patent US20240293339A1, “COMPOUNDS, COMPOSITIONS AND METHODS FOR THE PREVENTION AND/OR TREATMENT OF VARIOUS MITOCHONDRIAL DISEASES OR DISORDERS, INCLUDING FRIEDREICH'S ATAXIA” (Stealth Bio Therapeutics Inc., priority 2021, published 2024).

The EC50 is the concentration needed to bring the measured effect to its halfway point. Usually Cmax stands for the highest concentration seen after dosing.

Entries after “also recorded” stand apart in the source; their conditions may differ.

The subject of data set [1] is frataxin deficient fibroblasts (Friedreich's ataxia patient fibroblast cell line GM03665). Nature of the data set: Frataxin deficient fibroblast viability assay (the BSO Assay). The note with it: for EC50: Homo sapiens, Fibroblast, FA patient fibroblasts pretreated with drug 250 nM down to 6.125 nM the day before BSO 10 mM, MTT 48 hrs later; for BSO assay activity compared with vatiquinone (in words) / protection against ferroptosis (in words): summary of Table 1 BSO assay data. Format: cell-based, human. As for the experimental part: Example 6: Frataxin Deficient Fibroblast Viability Assay (the “BSO Assay”)
This Example was used to evaluate the various new compositions for their potential efficacy in the treatment of Friedreich's Ataxia (FA or FRDA) based on their potential to inhibit ferroptosis based on this BSO assay—performed substantially as described in the above cited Reference (Matthias et al.).
The stock solutions of the test articles (and control compounds) were prepared in dimethyl sulfoxide (DMSO at 10 mM). Working stock solutions (2 times concentrated) were prepared on the day of the experiment in respective cell culture medium to be used for assay (detailed medium description below). A listing of compounds used as test articles in this Example 12 are found in Table 1, below.
A patient derived frataxin deficient fibroblast cell line was obtained from Coriell Institute. More specifically, the following cell lines/DNA samples were obtained from the NIGMS Human Genetic Cell Repository at the Coriell Institute for Medical Research: GM03665. To evaluate importance of various growth conditions on cell susceptibility to BSO toxicity cells were grown on:
MEM (Sigma-Aldrich) 15% Fetal Bovine Serum (FBS) without growth factors;
MEM (Sigma-Aldrich) 15% FBS with growth factors (Catalogue number 100-18B, Recombinant Human FGF-basic (154 a.a.) and catalogue number AF-100-15, Animal-Free Recombinant Human EGF from Peprotech);
MEM199/MEM EBS (Bioconcept Ltd.) 10% FBS, insulin 10 μg/ml, L-glutamine 2 mM with growth factors (Catalogue number 100-18B, Recombinant Human FGF-basic (154 a.a.) and catalogue number AF-100-15, Animal-Free Recombinant Human EGF from Peprotech).
To conduct an experiment, fibroblast cells (from all growth conditions) were seeded (100 μL (cells 3×10∧3/well) on 96-well plates in MEM199/MEM EBS medium 10% FBS, insulin 10 μg/mL, L-glutamine 2 mM with growth factors and allowed to grow on plate for 24 hrs. After 24 hrs., media was removed and then test compounds of interest were added (100 μL, 2 times concentrated stock) to 96-well plates (end DMSO concentration not exceeding 0.5%) and incubated for 24 hours. Then L-buthionine-sulfoximine (BSO, from Acros Organics, Cat. No. 235520010) was added (100 μL, 2 times concentrated stock) at end concentrations ranging from 1 to 10 mM. Both test compounds and BSO were dissolved in MEM199/MEM EBS medium 10% FBS, insulin 10 μg/mL, L-glutamine 2 mM with growth factors. Cell viability was monitored and either after 24- or 48-hours cell viability was assayed by MTT (Thiazolyl blue tetrazolium bromide) assay. For the MTT assay, media was removed and 100 μL of MTT 1 mg/mL was added, incubated for 2 hours at +37° C., then medium was removed and 100 μL of isopropanol added to dissolve sediment. Absorption was measured at 570 (OD570) and 650 (OD650) nm wavelengths. Control cells (vehicle instead of BSO and compound) and vehicle control (with BSO, but vehicle instead of test compound) were treated in the same manner as cells with BSO and compound. All cell media contained penicillin and streptomycin 100 U/mL each.
Absorption readouts were processed as follows: ValueΔ=ValueOD570-ValueOD650 and the obtained values were used to calculate cell viability as % of control cell (i.e., no BSO, no compound, just vehicle) viability.
Except as otherwise indicated in Table 1, all samples were run in at least 3 replicates for test compounds and at least 8 replicates for controls (i.e., both control (no BSO, no compound) and vehicle control (i.e., with BSO, no compound). Exact N per data points are indicated in the figures/table legends. Results for the compounds (test articles and controls) tested are listed in Table 1, below.
This is a cell-based assay measuring cytotoxicity which results from oxidative stress subsequent to depletion of endogenous glutathione defense mechanisms. […]

Data set [2] is described as follows: Concentration of therapeutic agents in blood and brain tissue in rat following oral administration. Conditions: male SD rats; for Brain level: perfused brain homogenate; for drop in plasma concentration relative to the next larger compound pair: 2-1/3-1 vs vatiquinone/1-1, 4-1/5-1 vs 2-1/3-1; for brain level (in words): summary of Table 1 brain concentration data; for Cmax: male, Sprague-Dawley, rat, plasma, po, 10 mg/kg. The data set is classed as in vivo. The protocol:
Example 7: Study of Concentration of Therapeutic Agents in Blood and Brain Tissue in Rat Following Oral Administration
This study was intended to examine and compare the concentration of the various therapeutic agents tested in blood and brain tissue shortly after oral administration to rats.
The experimental procedures were carried out in accordance with the guidelines of the European Community and local laws and policies and were approved by the Latvian Animal Protection Ethical Committee, Food and Veterinary Service, Riga, Latvia. Animals were housed in the animal facilities at the Latvian Institute of Organic Synthesis (LIOS) under standard conditions (21-23° C., 12 h light-dark cycle) with unlimited access to food (R70 diet, Lantmännen Lantbruk, Sweden) and water. Male Sprague Dawley (SD) rats (8 weeks old at the time of purchase, from Envigo) were used for the study and were allowed an acclimatization period of at least 1 week prior to treatment. No drugs or vaccines were administered before the start of the study. Only healthy animals were included in the study. Animals were weighed on the day of treatment (before treatment) to calculate the required volume of working solution of compound (i.e. therapeutic agent) administered. No drugs except the therapeutic agent to be tested were administered during the study. Rats were dosed orally with compound (1 times weight μL, solution 10 mg/mL, dissolved in sesame oil).
Animals were anaesthetized using 5% isoflurane inhalation at selected time points after administration of test compounds. Then chest was opened and blood drawn from the heart and collected in EDTA coated microtubes (Sarstedt). Transcardial perfusion was performed afterwards by perfusing ice-cold PBS solution for 4 minutes, ˜55 mL total perfusion volume. Afterwards brain tissues were collected in microtubes and frozen in liquid nitrogen. Blood was centrifuged for 3 min at 10000 g within 15 minutes of collection. Plasma was collected in low-binding microtubes (Nerbe plus) by adding 95 μL of plasma to 5 μL of 2% HCOOH to obtain 100 μL of plasma solution with HCOOH end concentration 0.1%. Plasma was frozen in liquid nitrogen and stored at −80° C.
Tissue samples were weighed in 2 mL micro centrifuge tubes. Microtubes were kept on ice throughout the procedure. Tissue homogenates were prepared using acidified (0.1% HCOOH) water by adding 4 times volume to weighed samples. Two metal beads were placed in each micro centrifuge tube and brain tissues homogenized using Bead Ruptor (Omni International, USA) for 60 s using speed 4 ms per cycle. Homogenates (96 uL) were transferred to 1.5 mL low binding micro centrifuge tubes. Homogenates were frozen and kept at −80° C. until sample extraction for LC/MS/MS analysis.
Extraction of spiked SD Rat EDTA plasma or brain homogenate standards was performed by adding to 100 μL of spiked rat plasma or brain homogenate standard sample of 400 μL of deproteinization solution, 1% formic acid in MeOH with IS (reserpine 15 ng/mL). Samples were vortex mixed for 10 sec at 2800 rpm and incubated on orbital shaker for 10 min at 200 rpm. Then vortex mixed for 10 sec at 2800 rpm and centrifugated at 12000 rpm for 30 min in 5° C. Supernatants were transferred to LC vials and used for analysis. Extraction of rat EDTA plasma or brain homogenate analytical samples was performed by adding to 96 μL of rat plasma or brain homogenate analytical sample of 4 μL of DMSO, vortex mix the samples. Then 400 μL of deproteinization solution, 1% formic acid in MeOH with IS (reserpine 15 ng/mL) were added. Samples were vortex mixed for 10 sec at 2800 rpm and incubated on orbital shaker for 10 min at 200 rpm. Then vortex mixed for 10 sec at 2800 rpm and centrifugated at 12000 rpm for 30 min in 5° C. Supernatants were transferred to LC vials and used for analysis.
Data collected for each of the various therapeutic agents tested (i.e. vatiquinone and Compounds 1-1, 2-1, 3-1, 4-1 and 5-1 are summarized in Table 1, below.

Setting [3] is: 10 mg/mL solution in sesame oil, LC/MS/MS.
[4] abbreviates: 10 mg/mL solution in sesame oil, EDTA plasma, LC/MS/MS.

As for `CC(C)=CCC[C@@](C)(O)CCC1=C(C)C(=O)C(C)=C(C)C1=O` [Compound 4-1, (R)-2-(3-hydroxy-3,7-dimethyloct-6-en-1-yl)-3,5,6-trimethylcyclohexa-2,5-diene-1,4-dione], in data set [1], the EC50 was found to be 90.5 nM, the “BSO assay activity compared with vatiquinone (in words)” value is given as “not quite as effective as vatiquinone” and the “protection against ferroptosis (in words)” value (“protection” below) is given as “protective against ferroptosis”. This compound also showed a Brain level in data set [2] (setting [3]) of 0 ng/g. Besides, in data set [2], the “drop in plasma concentration relative to the next larger compound pair” value is about 20 fold and the “brain level (in words)” value is on record as “no concentration of these compounds detected”. The Cmax in data set [2] (setting [4]) came out at 5.5 ng/mL.

Turning to `CC(C)=CCC[C@](C)(O)CCC1=C(C)C(=O)C(C)=C(C)C1=O` [Compound 5-1, (S)-2-(3-hydroxy-3,7-dimethyloct-6-en-1-yl)-3,5,6-trimethylcyclohexa-2,5-diene-1,4-dione], in data set [1], the EC50 amounted to 39 nM, the “BSO assay activity compared with vatiquinone (in words)” value is “as good as vatiquinone” and the “protection” value is “protective against ferroptosis”. Also, in data set [2] (setting [3]), the Brain level is recorded as 0 ng/g. In addition, in data set [2], the “drop in plasma concentration relative to the next larger compound pair” value is on record as about 20 fold and the “brain level (in words)” value is “no concentration of these compounds detected”. In data set [2] (setting [4]), this compound showed a Cmax of 3.2 ng/mL.

On to `CC(C)=CCC/C(C)=C/CC[C@@](C)(O)CCC1=C(C)C(=O)C(C)=C(C)C1=O` [Compound 2-1, (R,E)-2-(3-hydroxy-3,7,11-trimethyldodeca-6,10-dien-1-yl)-3,5,6-trimethylcyclohexa-2,5-diene-1,4-dione], for which, in data set [1], the EC50 stood at 141 nM, the “BSO assay activity compared with vatiquinone (in words)” value is listed as “not quite as effective as vatiquinone” and the “protection” value is “protective against ferroptosis”. The compound further gave a Brain level in data set [2] (setting [3]) of 24.5 ng/g. For the same compound, in data set [2], the “drop in plasma concentration relative to the next larger compound pair” value is about 5 fold and the “brain level (in words)” value is given as “comparable to those observed with vatiquinone”. Further, in data set [2] (setting [4]), the Cmax was about 100 ng/mL.

In the case of `CC(C)=CCC/C(C)=C/CC/C(C)=C/CC[C@@](C)(O)CCC1=C(C)C(=O)C(C)=C(C)C1=O` [vatiquinone, 2-[(3R,6E, 10E)-3-Hydroxy-3,7,11,15-tetramethyl-6,10,14-hexadecatrien-1-yl]-3,5,6-trimethyl-2,5-cyclohexadiene-1,4-dione, reference compound], in data set [1], the EC50 is 40.7 nM and the “protection” value is “protective against ferroptosis”. Further, in data set [2] (setting [4]), the “Plasma Cmax” value stood at 457 ng/mL and the Cmax was about 500 ng/mL. The compound further displayed a Brain level in data set [2] (setting [3]) of 20.8 ng/g.

For the compound `CC(C)=CCC/C(C)=C/CC/C(C)=C/CC[C@](C)(O)CCC1=C(C)C(=O)C(C)=C(C)C1=O` [Compound 1-1, 2-[(3S,6E,10E)-3-hydroxy-3,7,11,15-tetramethyl-6,10,14-hexadecatrien-1-yl]-3,5,6-trimethyl-2,5-cyclohexadiene-1,4-dione], in data set [1], the EC50 is 16.6 nM, the “BSO assay activity compared with vatiquinone (in words)” value is on record as “at least equivalent to that of vatiquinone; also recorded: as good as vatiquinone” and the “protection” value is reported as “protective against ferroptosis”. This compound had a Brain level in data set [2] (setting [3]) of 8.3 ng/g. This compound also had a Cmax in data set [2] (setting [4]) of about 500 ng/mL.

In the case of `CC(C)=CCC/C(C)=C/CC[C@](C)(O)CCC1=C(C)C(=O)C(C)=C(C)C1=O` [Compound 3-1, (S,E)-2-(3-hydroxy-3,7,11-trimethyldodeca-6,10-dien-1-yl)-3,5,6-trimethylcyclohexa-2,5-diene-1,4-dione], in data set [1], the EC50 was determined as 41.2 nM, the “BSO assay activity compared with vatiquinone (in words)” value was “as good as vatiquinone” and the “protection” value is “protective against ferroptosis”. Besides, the Brain level in data set [2] (setting [3]) worked out at 22.0 ng/g. In data set [2], the “drop in plasma concentration relative to the next larger compound pair” value is on record as about 5 fold and the “brain level (in words)” value is reported as “comparable to those observed with vatiquinone”. In data set [2] (setting [4]), this compound had a Cmax of about 100 ng/mL.
